Measurements published in patent publication US4604239A, “Antibiotics” (Eli Lilly and Company, priority 1985, dated 1986).
Converted amounts (≈) assume the structure as drawn.

Legend:
Format in all cases: cell-based
Hemophilus influenzae = test: agar-dilution MIC; details: Table 9
Clostridium perfringens = Clostridium perfringens 81; Table 14
Peptococcus constellatus = test: agar-dilution MIC; details: Pc. constellatus 1468; Table 15
Protocol: (§1) The MIC values were determined by the agar-dilution method, and are recorded in Table 15, which follows.

Peptococcus magnus = test: agar-dilution MIC; details: Pc. magnus 1477; Table 15
Protocol: as §1

[1] = test system: Peptococcus asaccharolyticus; test: agar-dilution MIC; details: Table 15
Protocol: as §1

Peptococcus prevoti = test: agar-dilution MIC; details: Table 15
Protocol: as §1

Streptococcus pneumoniae = test: agar-dilution MIC
From the text: (§2) The agar-dilution procedure described by the International Collaborative study (ICS) group was used to determine the minimum inhibitory concentrations (MIC's).

Bacteroides fragilis = test: agar-dilution MIC
From the text: as §2

Streptococcus pyogenes = test: agar-dilution MIC
From the text: as §2

[2] = test system: Staphylococcus epidermidis; test: agar-dilution MIC
From the text: as §2

Bacteroides vulgatis = test: agar-dilution MIC; details: B. vulgatis 1563; 24-hour; Table 12
From the text: (§3) The A41030 antibiotics, factors A, B, and C, are active against a genus of anaerobic bacteria identified as Bacteroides sp., the 24-hour MIC values being determined by the agar-dilution method, and are set forth in Table 12, which follows.

Bacteroides corrodens = test: agar-dilution MIC; details: B. corrodens 1874; 24-hour; Table 12
From the text: as §3

Clostridium septicum = test: agar-dilution MIC; details: Clostridium septicum 1128; Table 14
[3] = test system: Peptostreptococcus intermedius; test: agar-dilution MIC
[4] = test system: Peptostreptococcus anaerobius; test: agar-dilution MIC
Fusobacterium symbiosum = test: agar-dilution MIC; details: Fusobacterium symbiosum 1470; Table 14

For NC1C(=O)NC2Cc3ccc(c(Cl)c3)Oc3cc4cc(c3O)Oc3ccc(cc3Cl)C(O)C3NC(=O)C(NC(=O)C4NC(=O)C(NC2=O)c2cc(O)cc(c2)Oc2cc1ccc2O)c1cc(Cl)c(O)c(c1)-c1c(O)cc(O)cc1C(C(=O)O)NC3=O (centres unmarked) [A41030 factor A], the MIC (Hemophilus influenzae; Hemophilus influenzae R274) was 16 µg/mL (≈ 13 µM), the MIC (Hemophilus influenzae; Hemophilus influenzae S. Ford) was 16 µg/mL (≈ 13 µM) and the MIC (Clostridium perfringens) was 0.5 µg/mL (≈ 0.405 µM). For the same molecule, the MIC (Peptococcus constellatus) was 0.5 µg/mL (≈ 0.405 µM), the MIC (Peptococcus magnus) was 0.5 µg/mL (≈ 0.405 µM) and the MIC ([1]; Pc. asaccharolyticus 1302) was at most 0.03 µg/mL. For the same molecule, the MIC ([1]; Pc. asaccharolyticus 1344) was 0.5 µg/mL (≈ 0.405 µM), the MIC (Peptococcus prevoti; Pc. prevoti 1293) was 1.0 µg/mL (≈ 0.811 µM) and the MIC (Peptococcus prevoti; Pc. prevoti 1407) was 1.0 µg/mL (≈ 0.811 µM). It also gave an MIC (Streptococcus pneumoniae; Streptococcus pneumoniae 2764, Table 11) of 0.25 µg/mL (≈ 0.203 µM), an MIC (Streptococcus pneumoniae; Streptococcus pneumoniae 6301, Table 11) of 0.25 µg/mL (≈ 0.203 µM) and an MIC (Streptococcus pneumoniae; Streptococcus pneumoniae B1-438, end point after 24 hours, Table 18) of 0.25 µg/mL (≈ 0.203 µM). It also gave an MIC (Streptococcus pneumoniae; Streptococcus pneumoniae BI-343, Table 11) of 0.25 µg/mL (≈ 0.203 µM), an MIC (Streptococcus pneumoniae; Streptococcus pneumoniae Park I, Table 11) of 0.25 µg/mL (≈ 0.203 µM) and an MIC (Streptococcus pneumoniae; Streptococcus pneumoniae Park I, Table 17) of 0.5 µg/mL (≈ 0.405 µM). The MIC (Streptococcus pneumoniae; Streptococcus pneumoniae Type 14, Table 11) was 0.25 µg/mL (≈ 0.203 µM), the MIC (Bacteroides fragilis; B. fragilis 2, 24-hour, Table 12) was 64 µg/mL (≈ 51.9 µM) and the MIC (Bacteroides fragilis; B. fragilis 9, 24-hour, Table 12) was 64 µg/mL (≈ 51.9 µM). It also gave an MIC (Bacteroides fragilis; B. fragilis 103, 24-hour, Table 12) of 32 µg/mL (≈ 25.9 µM), an MIC (Bacteroides fragilis; B. fragilis 104, 24-hour, Table 12) of 32 µg/mL (≈ 25.9 µM) and an MIC (Bacteroides fragilis; B. fragilis 106, 24-hour, Table 12) of 64 µg/mL (≈ 51.9 µM). The MIC (Bacteroides fragilis; B. fragilis 107, 24-hour, Table 12) was 32 µg/mL (≈ 25.9 µM), the MIC (Bacteroides fragilis; B. fragilis 108, 24-hour, Table 12) was 32 µg/mL (≈ 25.9 µM) and the MIC (Bacteroides fragilis; B. fragilis 110, 24-hour, Table 12) was 64 µg/mL (≈ 51.9 µM). The MIC (Bacteroides fragilis; B. fragilis 111, 24-hour, Table 12) was 32 µg/mL (≈ 25.9 µM), the MIC (Bacteroides fragilis; B. fragilis 112, 24-hour, Table 12) was 64 µg/mL (≈ 51.9 µM) and the MIC (Bacteroides fragilis; B. fragilis 113, 24-hour, Table 12) was 32 µg/mL (≈ 25.9 µM). It also gave an MIC (Bacteroides fragilis; B. fragilis 1451, 24-hour, Table 12) of 64 µg/mL (≈ 51.9 µM), an MIC (Bacteroides fragilis; B. fragilis 1470, 24-hour, Table 12) of 64 µg/mL (≈ 51.9 µM) and an MIC (Bacteroides fragilis; B. fragilis 1877, 24-hour, Table 12) of 32 µg/mL (≈ 25.9 µM). It also gave an MIC (Bacteroides fragilis; B. fragilis 9032, 24-hour, Table 12) of 64 µg/mL (≈ 51.9 µM), an MIC (Bacteroides fragilis; Bacteroides fragilis 1877, Table 14) of 32 µg/mL (≈ 25.9 µM) and an MIC (Bacteroides fragilis; Bacteroides fragilis 1936B, Table 14) of 64 µg/mL (≈ 51.9 µM). For the same molecule, the MIC (Streptococcus pyogenes; Streptococcus pyogenes 9943, Table 11) was 0.25 µg/mL (≈ 0.203 µM), the MIC (Streptococcus pyogenes; Streptococcus pyogenes 10389, Table 11) was 0.25 µg/mL (≈ 0.203 µM) and the MIC (Streptococcus pyogenes; Streptococcus pyogenes 12344, Table 11) was 0.5 µg/mL (≈ 0.405 µM). For the same molecule, the MIC (Streptococcus pyogenes; Streptococcus pyogenes C203, Table 11) was 0.25 µg/mL (≈ 0.203 µM), the MIC (Streptococcus pyogenes; Streptococcus pyogenes C203, Table 17) was 0.5 µg/mL (≈ 0.405 µM) and the MIC (Streptococcus pyogenes; Streptococcus pyogenes C203, end point after 24 hours, Table 18) was 0.25 µg/mL (≈ 0.203 µM). It also gave an MIC (Streptococcus pyogenes; Streptococcus pyogenes M-6517, Table 11) of 0.25 µg/mL (≈ 0.203 µM), an MIC ([2]; Staphylococcus epidermidis 219, end point after 24 hours, Table 18) of 0.06 µg/mL (≈ 0.0486 µM) and an MIC ([2]; Staphylococcus epidermidis 269, end point after 24 hours, Table 18) of 0.06 µg/mL (≈ 0.0486 µM). The MIC ([2]; Staphylococcus epidermidis 270, end point after 24 hours, Table 18) was 0.06 µg/mL (≈ 0.0486 µM), the MIC ([2]; Staphylococcus epidermidis 285, end point after 24 hours, Table 18) was 0.06 µg/mL (≈ 0.0486 µM) and the MIC ([2]; Staphylococcus epidermidis Britton, Table 11) was 0.13 µg/mL (≈ 0.105 µM). The MIC ([2]; Staphylococcus epidermidis EPI2, Table 17) was 1 µg/mL (≈ 0.811 µM), the MIC ([2]; Staphylococcus epidermidis Litton, Table 11) was 0.13 µg/mL (≈ 0.105 µM) and the MIC ([2]; Staphylococcus epidermidis Mencher, Table 11) was at most 0.06 µg/mL. It also gave an MIC ([2]; Staphylococcus epidermidis Mobley, Table 11) of at most 0.06 µg/mL, an MIC (Bacteroides vulgatis) of 32 µg/mL (≈ 25.9 µM) and an MIC (Bacteroides corrodens) of 32 µg/mL (≈ 25.9 µM). The MIC (Clostridium septicum) was 2 µg/mL (≈ 1.62 µM), the MIC ([3]; Peptostreptococcus intermedius 1264, Table 14) was 1.0 µg/mL (≈ 0.811 µM) and the MIC ([3]; Ps. intermedius 1264, Table 15) was at most 0.03 µg/mL. The MIC ([3]; Ps. intermedius 1524, Table 15) was 0.5 µg/mL (≈ 0.405 µM), the MIC ([3]; Ps. intermedius 1624, Table 15) was 1.0 µg/mL (≈ 0.811 µM) and the MIC ([4]; Peptostreptococcus anaerobius 1428, Table 14) was at most 0.25 µg/mL. For the same molecule, the MIC ([4]; Ps. anaerobius 8, Table 15) was 0.5 µg/mL (≈ 0.405 µM), the MIC ([4]; Ps. anaerobius 52, Table 15) was 0.5 µg/mL (≈ 0.405 µM) and the MIC ([4]; Ps. anaerobius 59, Table 15) was 0.5 µg/mL (≈ 0.405 µM). For the same molecule, the MIC ([4]; Ps. anaerobius 1418, Table 15) was at most 0.03 µg/mL, the MIC ([4]; Ps. anaerobius 1428, Table 15) was 0.5 µg/mL (≈ 0.405 µM) and the MIC ([4]; Ps. anaerobius 1451, Table 15) was 0.5 µg/mL (≈ 0.405 µM). For the same molecule, the MIC ([4]; Ps. anaerobius 1477, Table 15) was 0.5 µg/mL (≈ 0.405 µM) and the MIC (Fusobacterium symbiosum) was 1.0 µg/mL (≈ 0.811 µM).
